{
  "source": "paper PMC12340070",
  "about": "“A novel modulator of IL-6R prevents inflammation-induced preterm birth and improves newborn outcome” (EMBO Molecular Medicine, 2025)",
  "key": {"p38": {"system": "p38", "test": "p38 phosphorylation in HEK-Blue IL-6 cells (immunoblot)", "type": "cell-based, human", "details": "for p-p38 phospho/total: densitometry", "method": "(§1) For RT-qPCR experiments, cells were plated in 6-well plates at 70% of confluence and starved overnight. Cells were treated respectively with HSJ633, HSJ630, HSJ631, HSJ634, HSJ635, HSJ639 (1 × 10^−6 M), or TCZ (3.44 μM, based on validated doses (Sahraoui et al, [2014])) for TNF-α expression. For hIL-1, hIL-6, and hTNF-α expression, cells were treated with HSJ633 using concentrations ranging from 10^−11 to 10^−4 M, allowing for equilibrium over 15 min. Cells were then treated with […] of IL-6 for 6 h for both experiments. Cell lysis was performed by adding RIBOzol. Samples were stored at −20 °C until analysis by quantitative PCR. To determine the degree of phosphorylation of different proteins (STAT3, ERK, AKT, and p38), HEK-Blue IL-6 cells were treated with HSJ633 (10^−6 M), TCZ (3.44 uM) or vehicle for 30 min in DMEM only. Human IL-6 (3.86 nM) was added to the medium for 15 min to stimulate IL-6R pathways leading to STAT3, ERK, and AKT activation. For p38 activation, 25 min of stimulation with IL-6 was required. The wells were charged with radioimmunoprecipitation assay buffer (RIPA) at a concentration of 1×, cOmplete EDTA-free Protease Inhibitor Cocktail final concentration 1×, and phenylmethanesulfonyl fluoride (PMSF) 1 mM. Samples were shaken for 30 min followed by centrifugation at 12,000 RPM at 4 °C for 20 min to harvest the proteins. Proteins were stored at −80 °C until analysis by immunoblotting.\n(§2) A total of 15 μL of protein from HEK-Blue IL-6 cells combined with Laemmli-SDS 1× (reducing) was loaded onto SDS-PAGE gel and electro-transferred onto polyvinylidene difluoride membranes. After blocking with BSA 5%-TBST for 1 h, membranes were incubated with the following antibodies (Ab): either mouse anti-phospho-STAT3 (1:1000), rabbit anti-phospho-AKT (1:1000), rabbit anti-phospho-ERK1/2 (1:1000), rabbit anti-phospho-p38 (1:1000), rabbit anti-cytochrome c oxidase 4 (1:5000) or mouse anti-GAPDH (1:20,000, Proteintech). After washing, membranes were incubated for 1 h with secondary antibodies conjugated to HRP (1:3000 Anti-rabbit IgG, HRP-linked Antibody and 1:5000 Goat Anti-Mouse IgG (H + L)-HRP Conjugate). Samples were normalized by membrane stripping (15 g glycine, 1 g SDS, 10 mL Tween-20 at pH 2,2) and incubation with Ab (mouse anti-STAT3 (1:1000), rabbit anti-AKT (1:1000), rabbit anti-ERK1/2 (1:1000) or rabbit anti-p38 (1:1000)). After washing, membranes were incubated for 1 h with secondary antibodies conjugated to HRP (1:3000 Anti-rabbit IgG, HRP-linked antibody and 1:5000 goat anti-mouse IgG (H + L)-HRP Conjugate). Western Lightning Plus ECL or Clarity MAX Western ECL Substrate were used for protein detection using the ChemiDoc MP, and densitometric analysis were completed with ImageLab from Bio-Rad Laboratories."}, "STAT3": {"system": "STAT3", "test": "STAT3 phosphorylation in HEK-Blue IL-6 cells (immunoblot)", "type": "cell-based, human", "details": "for p-STAT3 phospho/total: 10 min, densitometry", "method": "as §1, with “Human IL-6 (3.86 nM) was added to the medium for 15 min to stimulate IL-6R pathways leading to STAT3, ERK, and AKT activation.” left out\nas §2"}, "[1]": {"system": "murine IL-6R (Ba/F3-gp130-mIL-6R)", "details": "ref Lokau et al, 2020; cited from earlier work", "text": "HSJ633 has been formulated based on the human IL-6 receptor. […] Both Tocilizumab and MR-16 act as orthosteric antagonists, competitively interfering with IL-6 for receptor occupancy (Lokau et al, [2020]). The ..."}, "ERK1/2": {"system": "ERK1/2", "test": "ERK1/2 phosphorylation in HEK-Blue IL-6 cells (immunoblot)", "type": "cell-based, human", "details": "for p-ERK 1/2 phospho/total: 10 min, densitometry", "method": "as §1, with “Human IL-6 (3.86 nM) was added to the medium for 15 min to stimulate IL-6R pathways leading to STAT3, ERK, and AKT activation.” left out\nas §2"}, "[2]": {"system": "preterm birth in pregnant women", "details": "pregnancies prospectively reported following exposure; ref Hoeltzenbein et al, 2016; cited from earlier work", "text": "Complete or partial inhibition of the IL-6 receptor by HSJ633 reduces maternal inflammation and thus prematurity levels."}, "AKT": {"system": "AKT", "test": "AKT phosphorylation in HEK-Blue IL-6 cells (immunoblot)", "type": "cell-based, human", "details": "for p-AKT phospho/total: 10 min, densitometry", "method": "as §1, with “Human IL-6 (3.86 nM) was added to the medium for 15 min to stimulate IL-6R pathways leading to STAT3, ERK, and AKT activation.” left out\nas §2"}, "[3]": {"details": "HEK-Blue IL-6, IL-6 3.86 nM, HSJ633 1 μM, TCZ 3.44 μM"}},
  "data": [
    {"substance": "Tocilizumab: IL-6R orthosteric antagonist monoclonal antibody", "values": [
      {"measurement": "p38 phosphorylation, result in words", "setting": "p38; [3]", "value": "blocked"},
      {"measurement": "p-p38 phospho/total", "setting": "p38; average", "value": 0.66},
      {"measurement": "p-p38 phospho/total", "setting": "p38; replicate 1", "value": 0.67},
      {"measurement": "p-p38 phospho/total", "setting": "p38; replicate 2", "value": 0.65},
      {"measurement": "p-STAT3 phospho/total", "setting": "STAT3; mean (Moyenne)", "value": 0.57},
      {"measurement": "p-STAT3 phospho/total", "setting": "STAT3; replicate 2", "value": 0.67},
      {"measurement": "p-STAT3 phospho/total", "setting": "STAT3; replicate 3", "value": 0.46},
      {"measurement": "STAT3 phosphorylation, result in words", "setting": "STAT3; [3]", "value": "blocked"},
      {"measurement": "proliferation and activation of STAT3 in Ba/F3-gp130-mIL-6R", "setting": "[1]", "value": "no hindrance on the proliferation and activation of STAT3"},
      {"measurement": "p-ERK 1/2 phospho/total", "setting": "ERK1/2; average", "value": 0.11},
      {"measurement": "p-ERK 1/2 phospho/total", "setting": "ERK1/2; replicate 2 (633-2 marked Outliers)", "value": 0.12},
      {"measurement": "p-ERK 1/2 phospho/total", "setting": "ERK1/2; replicate 3", "value": 0.09},
      {"measurement": "ERK1/2 phosphorylation, result in words", "setting": "ERK1/2; [3]", "value": "blocked"},
      {"measurement": "increase rate in preterm birth vs general population", "setting": "[2]", "value": 31.1, "unit": "%"},
      {"measurement": "p-AKT phospho/total", "setting": "AKT; average", "value": 0.06},
      {"measurement": "p-AKT phospho/total", "setting": "AKT; replicate 2", "value": 0.0565},
      {"measurement": "p-AKT phospho/total", "setting": "AKT; replicate 3", "value": 0.06},
      {"measurement": "AKT phosphorylation, result in words", "setting": "AKT; [3]", "value": "blocked"}
    ]}
  ]
}
